Tests used:
Type in all cases: biochemical
VEGFR2 = target: T1, VEGFR2 (Homo sapiens, UniProt P35968); assay: Z'-LYTE in vitro enzyme activity assay, VEGFR2; details: 100 μM ATP, 60 minutes, room temperature; read-out: IC50 detected by Z'-LYTE, VEGFR2
T1 construct: purchased Life technology
Experimental: (§1) The enzyme activity was measured by Z′-LYTE™ Detection Kinase Assay. The IC50 value of the compounds was used as an index to evaluate the inhibitory effect of the compounds on VEGFR2, FGFR1 and PDGFRB.
(§2) Recombinant human VEGFR2 and FGFR1 proteases were purchased from Life technology, PDGFRB Protease was purchased from Millipore.
(§3) Z-LYTE™ Kit Tyr1 and Tyr4 were purchased from Life technology. Multi-microplate reader, Envision (PerkinElmer) read board was used.
(§4) The test compounds were diluted 3 times with a concentration gradient, the final concentration was from 10 μM to 0.17 nM with a total of 11 concentrations, and each concentration had two parallel holes; the content of DMSO in the assay was 1%.
3 nM VEGFR2 protein kinase, 2 μM Tyr1 peptide, 100 μM ATP, 50 mM HEPES (pH 7.5), 10 mM MgCl2, 1 mM EGTA, 0.01% BRIJ-35. The detector plate was Black Proxiplate 384-Plus plate (PerkinElmer), the reaction was performed at room temperature for 60 minutes, and the reaction system was 10 μl.
(§5) The reaction was stopped by adding 5 μl of DV reagent B (1:128) to the kinase reaction solution and incubated at 23° C. for 60 minutes. The Envision instrument was used to read the plate.
(§6) The data was converted to phosphorylation rate and inhibition rate and the 4 parameter curve fitting (Model 205 in XLFIT5, iDBS) was used to get IC50 data of the compounds.

FGFR1 = target: T2, FGFR1 (Homo sapiens, UniProt P11362); assay: Z'-LYTE in vitro enzyme activity assay, FGFR1; details: 25 μM ATP, 60 minutes, room temperature; read-out: IC50 detected by Z'-LYTE, FGFR1
T2 construct: purchased Life technology
Experimental: as §1, §2, §3, §4
(§7) 1 nM FGFR1 protein kinase, 2 μM Tyr4 peptide, 25 μM ATP, 50 mM HEPES (pH 7.5), 10 mM MgCl2, 1 mM EGTA, 0.01% BRIJ-35, 2 mM MnCl2, 1 mM DTT. The detector plate was Black Proxiplate 384-Plus plate (PerkinElmer), the reaction was performed at room temperature for 60 minutes, and the reaction system was 10 μl.
as §5, §6

PDGFRB = target: T3, PDGFRB (Homo sapiens, UniProt P09619); assay: Z'-LYTE in vitro enzyme activity assay, PDGFRB; details: 100 μM ATP, 60 minutes, room temperature; read-out: IC50 detected by Z'-LYTE, PDGFRB
T3 construct: purchased Millipore
Experimental: as §1, §2, §3, §4
as §7, with “40 nM PDGFRB” for “1 nM FGFR1”, “40 nM PDGFRB protein kinase,” for “1 nM FGFR1 protein kinase,”, “Tyr4 peptide, 100 μM ATP,” for “Tyr4 peptide, 25 μM ATP,”
as §5, §6

T3 sequence (P09619 33-1106): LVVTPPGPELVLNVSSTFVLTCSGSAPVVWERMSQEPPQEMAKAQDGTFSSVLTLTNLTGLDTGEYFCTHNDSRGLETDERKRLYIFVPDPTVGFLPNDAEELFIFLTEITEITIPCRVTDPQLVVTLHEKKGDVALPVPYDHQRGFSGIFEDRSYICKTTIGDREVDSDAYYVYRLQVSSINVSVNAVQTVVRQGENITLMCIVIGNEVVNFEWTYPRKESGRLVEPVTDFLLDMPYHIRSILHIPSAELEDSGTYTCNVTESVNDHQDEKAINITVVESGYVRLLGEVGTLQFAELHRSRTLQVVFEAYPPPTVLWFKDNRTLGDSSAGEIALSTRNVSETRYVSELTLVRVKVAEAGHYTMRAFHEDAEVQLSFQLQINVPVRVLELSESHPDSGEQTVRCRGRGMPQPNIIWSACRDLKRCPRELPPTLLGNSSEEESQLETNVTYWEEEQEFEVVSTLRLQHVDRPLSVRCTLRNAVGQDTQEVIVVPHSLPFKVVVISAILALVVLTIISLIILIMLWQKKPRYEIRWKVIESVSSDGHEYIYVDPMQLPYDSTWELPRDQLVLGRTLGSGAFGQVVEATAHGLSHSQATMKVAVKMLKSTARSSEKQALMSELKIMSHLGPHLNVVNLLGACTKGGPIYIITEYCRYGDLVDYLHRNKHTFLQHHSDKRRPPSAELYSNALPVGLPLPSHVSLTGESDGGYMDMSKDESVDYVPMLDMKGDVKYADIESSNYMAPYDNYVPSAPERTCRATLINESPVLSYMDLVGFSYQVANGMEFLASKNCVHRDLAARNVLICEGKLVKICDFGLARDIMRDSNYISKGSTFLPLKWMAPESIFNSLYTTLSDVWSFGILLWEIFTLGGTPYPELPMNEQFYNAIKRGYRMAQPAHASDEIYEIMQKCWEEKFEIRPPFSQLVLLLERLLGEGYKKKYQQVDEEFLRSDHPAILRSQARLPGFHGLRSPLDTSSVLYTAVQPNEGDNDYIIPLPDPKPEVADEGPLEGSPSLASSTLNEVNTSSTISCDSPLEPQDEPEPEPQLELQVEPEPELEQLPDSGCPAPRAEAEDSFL
T1 sequence (P35968 20-1356): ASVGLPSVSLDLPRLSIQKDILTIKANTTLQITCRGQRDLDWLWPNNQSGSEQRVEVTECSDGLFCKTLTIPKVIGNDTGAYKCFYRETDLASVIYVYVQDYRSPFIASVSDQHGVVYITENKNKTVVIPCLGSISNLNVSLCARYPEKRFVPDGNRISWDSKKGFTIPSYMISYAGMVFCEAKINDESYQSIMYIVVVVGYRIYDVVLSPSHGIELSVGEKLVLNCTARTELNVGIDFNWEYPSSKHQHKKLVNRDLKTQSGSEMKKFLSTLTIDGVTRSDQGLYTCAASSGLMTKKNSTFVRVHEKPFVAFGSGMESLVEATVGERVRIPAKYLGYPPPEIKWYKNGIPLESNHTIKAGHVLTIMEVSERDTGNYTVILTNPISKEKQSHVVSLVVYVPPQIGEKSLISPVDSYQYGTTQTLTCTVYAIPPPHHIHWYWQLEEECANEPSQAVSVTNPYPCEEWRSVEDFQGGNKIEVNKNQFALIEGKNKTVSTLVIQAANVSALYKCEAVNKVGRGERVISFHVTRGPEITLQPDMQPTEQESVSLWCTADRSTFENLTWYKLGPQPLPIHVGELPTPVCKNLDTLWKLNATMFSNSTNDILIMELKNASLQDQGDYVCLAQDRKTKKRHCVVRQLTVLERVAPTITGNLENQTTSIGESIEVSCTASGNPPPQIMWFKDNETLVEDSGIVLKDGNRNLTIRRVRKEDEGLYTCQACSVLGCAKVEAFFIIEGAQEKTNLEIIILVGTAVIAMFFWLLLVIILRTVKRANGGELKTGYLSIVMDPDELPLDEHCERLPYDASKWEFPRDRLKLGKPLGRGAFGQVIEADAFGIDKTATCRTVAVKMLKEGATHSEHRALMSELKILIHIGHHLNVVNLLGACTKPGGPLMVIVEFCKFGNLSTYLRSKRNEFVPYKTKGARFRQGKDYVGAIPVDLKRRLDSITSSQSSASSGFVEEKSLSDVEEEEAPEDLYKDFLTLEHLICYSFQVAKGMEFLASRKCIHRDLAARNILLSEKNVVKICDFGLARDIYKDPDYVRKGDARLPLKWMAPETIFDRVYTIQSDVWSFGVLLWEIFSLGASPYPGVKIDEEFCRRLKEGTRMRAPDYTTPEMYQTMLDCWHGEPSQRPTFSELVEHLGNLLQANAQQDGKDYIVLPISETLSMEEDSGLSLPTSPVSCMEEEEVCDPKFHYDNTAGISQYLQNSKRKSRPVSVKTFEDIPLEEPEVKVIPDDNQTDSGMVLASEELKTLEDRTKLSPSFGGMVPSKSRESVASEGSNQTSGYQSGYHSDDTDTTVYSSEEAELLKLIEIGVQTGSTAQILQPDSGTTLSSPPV
T2 sequence (P11362 22-822): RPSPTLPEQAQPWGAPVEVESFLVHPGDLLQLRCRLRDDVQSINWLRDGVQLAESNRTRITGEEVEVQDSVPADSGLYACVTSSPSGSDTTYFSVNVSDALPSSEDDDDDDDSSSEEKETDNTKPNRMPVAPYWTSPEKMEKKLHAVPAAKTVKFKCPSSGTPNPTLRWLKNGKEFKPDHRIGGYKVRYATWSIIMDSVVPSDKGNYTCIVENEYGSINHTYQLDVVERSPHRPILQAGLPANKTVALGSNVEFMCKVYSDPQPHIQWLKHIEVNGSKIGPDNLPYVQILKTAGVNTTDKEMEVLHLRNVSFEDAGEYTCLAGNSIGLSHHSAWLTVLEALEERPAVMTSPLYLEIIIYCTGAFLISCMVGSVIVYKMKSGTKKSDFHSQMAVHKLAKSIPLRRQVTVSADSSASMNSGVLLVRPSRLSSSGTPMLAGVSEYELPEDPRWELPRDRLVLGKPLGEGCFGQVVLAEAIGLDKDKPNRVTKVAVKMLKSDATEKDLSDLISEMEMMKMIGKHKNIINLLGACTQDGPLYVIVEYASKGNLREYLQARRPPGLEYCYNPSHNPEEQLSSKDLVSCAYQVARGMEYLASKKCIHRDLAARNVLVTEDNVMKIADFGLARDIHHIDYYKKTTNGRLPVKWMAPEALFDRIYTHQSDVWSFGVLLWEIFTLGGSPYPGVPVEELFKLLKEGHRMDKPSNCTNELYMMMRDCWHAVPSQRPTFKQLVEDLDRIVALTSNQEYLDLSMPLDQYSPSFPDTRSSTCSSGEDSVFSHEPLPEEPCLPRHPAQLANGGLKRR

Row | Compound | IC50 (VEGFR2) | IC50 (FGFR1) | IC50 (PDGFRB)
1 | COC[C@@H]1CCCN1NC(=S)Nc1ccc(Oc2ccnc3cc(OC)c(C(N)=O)cc23)c(F)c1Cl [Example 105] | 200 to 1000 nM | 200 to 1000 nM | 200 to 1000 nM
2 | COc1cc2nccc(Oc3cc(F)c(NC(=S)N4CC(F)(F)C4)c(F)c3)c2cc1C(N)=O [Example 90] | 200 to 1000 nM | 50 to 200 nM | 200 to 1000 nM
3 | COc1cc2nccc(Oc3ccc(NC(=S)NC4CC=C(F)CC4)c(Cl)c3)c2cc1C(N)=O (centres unmarked) [Example 60] | 200 to 1000 nM | 200 to 1000 nM | 200 to 1000 nM
4 | COc1cc2nccc(Oc3ccc(NC(=S)NCc4ccc(F)cc4)c(Cl)c3)c2cc1C(N)=O [Example 17] | 200 to 1000 nM | 200 to 1000 nM | 50 to 200 nM
5 | COc1cc2nccc(Oc3ccc(Nc4c(Nc5cccnc5)c(=O)c4=O)c(Cl)c3)c2cc1C(N)=O [Example 147] | 200 to 1000 nM | 200 to 1000 nM | 200 to 1000 nM
6 | COc1cc2nccc(Oc3ccc(NC(=S)Nc4cccnc4)c(Cl)c3)c2cc1C(N)=O [Example 10] | 50 to 200 nM | 200 to 1000 nM | 50 to 200 nM
7 | COc1cc2nccc(Oc3ccc(Nc4c(NC5CCC5)c(=O)c4=O)c(Cl)c3)c2cc1C(N)=O [Example 145] | 200 to 1000 nM | 200 to 1000 nM | < 50 nM
8 | COc1cc2nccc(Oc3cc(F)c(NC(=S)NC4CC4)c(F)c3)c2cc1C(N)=O [Example 83] | 50 to 200 nM | 200 to 1000 nM | 50 to 200 nM
9 | COc1cc2nccc(Oc3cc(Cl)c4c(C(=O)NC5CC5)coc4c3)c2cc1C(N)=O [Example 196] | 200 to 1000 nM | 200 to 1000 nM | 200 to 1000 nM
10 | COc1cc2nccc(Oc3ccc(NC(=S)NC4CC4)c(Cl)c3)c2cc1NC(C)=O [Example 182] | 50 to 200 nM | 200 to 1000 nM | 200 to 1000 nM
11 | COc1cc2nccc(Oc3ccc(NC(=S)N4CCC4)c(Cl)c3)c2cc1C(N)=O [Example 68] | 50 to 200 nM | 50 to 200 nM | 50 to 200 nM
12 | CCCNc1c(Nc2ccc(Oc3ccnc4cc(OC)c(C(N)=O)cc34)cc2Cl)c(=O)c1=O [Example 140] | 200 to 1000 nM | 200 to 1000 nM | 200 to 1000 nM
13 | COc1cc2nccc(Oc3ccc(NC(=O)N4CC[C@@H](F)C4)c(Cl)c3F)c2cc1C(N)=O [Example 113] | 200 to 1000 nM | 200 to 1000 nM | 200 to 1000 nM
14 | COc1cc2nccc(Oc3ccc(NC(=O)C4(C(=O)NC5CC5)CC4)c(Cl)c3)c2cc1C(N)=O [Example 168] | 200 to 1000 nM | 200 to 1000 nM | 200 to 1000 nM
15 | COc1cc2nccc(Oc3ccc4c(c3)CN(CC(F)F)C(=O)N4)c2cc1C(N)=O [Example 164] | 200 to 1000 nM | 200 to 1000 nM | 200 to 1000 nM
16 | COc1cc2nccc(Oc3cc4occ(C(=O)NC5CC5)c4cc3Cl)c2cc1C(N)=O [Example 199] | 50 to 200 nM | 200 to 1000 nM | < 50 nM
17 | COc1cc2nccc(Oc3cc4occ(C(=O)N5CC(F)(F)C5)c4cc3Cl)c2cc1C(N)=O [Example 198] | 200 to 1000 nM | 200 to 1000 nM | 200 to 1000 nM
18 | COc1cc2nccc(Oc3ccc4c(C(=O)N5CC[C@H](F)C5)coc4c3)c2cc1C(N)=O [Example 205] | 200 to 1000 nM | 200 to 1000 nM | 200 to 1000 nM
19 | COc1cc2nccc(Oc3ccc(NC(=O)N4CC[C@@H](O)C4)c(Cl)c3F)c2cc1C(N)=O [Example 115] | 200 to 1000 nM | 200 to 1000 nM | 200 to 1000 nM
20 | COc1cc2nccc(Oc3ccc(Nc4c(NCc5ccccc5)c(=O)c4=O)c(Cl)c3)c2cc1C(N)=O [Example 148] | 200 to 1000 nM | 200 to 1000 nM | < 50 nM
21 | COc1cc2nccc(Oc3ccc(Nc4nc(=O)cc(C)[nH]4)c(Cl)c3)c2cc1C(N)=O [Example 135] | 200 to 1000 nM |  | 
22 | COc1cc2nccc(Oc3ccc(-c4c[nH]c(C(C)C)n4)c(Cl)c3)c2cc1C(N)=O [Example 179] | 200 to 1000 nM |  | 
23 | COc1cc2nccc(Oc3ccc(N/C(=C/[N+](=O)[O-])NC4CC4)c(Cl)c3)c2cc1C(N)=O [Example 134] | 200 to 1000 nM |  | 
24 | COc1cc2nccc(Oc3ccc4oc(C(=O)N5CCCC5)cc4c3)c2cc1C(N)=O [Example 192] | 200 to 1000 nM |  | 
25 | COc1cc2nccc(OCC3CC(NC(=O)NC4CC4)C3)c2cc1C(N)=O (centres unmarked) [Example 128] | 200 to 1000 nM |  | 
26 | COc1cc2nccc(OC3CC(NC(=O)NC4CC4)C3)c2cc1C(N)=O (centres unmarked) [Example 129] | 200 to 1000 nM |  | 
27 | NC(=O)c1ccn2ncc(Oc3ccc(NC(=O)NC4CC4)c(Cl)c3)c2c1 [Example 125] | 200 to 1000 nM |  | 
28 | CCOP(=O)(Cc1ccc(Oc2ccnc3cc(OC)c(C(N)=O)cc23)cc1Cl)NC1CC1 (centres unmarked) [Example 132] | 200 to 1000 nM |  | 

Further lines, results first:

Row | IC50 (VEGFR2) | IC50 (FGFR1) | IC50 (PDGFRB) | Compound
29 | 200 to 1000 nM | 200 to 1000 nM | 200 to 1000 nM | COCCCNc1c(Nc2ccc(Oc3ccnc4cc(OC)c(C(N)=O)cc34)cc2Cl)c(=O)c1=O [Example 141]
30 | < 50 nM | 50 to 200 nM | 50 to 200 nM | Cn1cncc1-c1ccc2c(Oc3ccc(NC(=S)NC4CC4)c(Cl)c3)ccnc2c1 [Example 213]
31 | 200 to 1000 nM | 200 to 1000 nM | 200 to 1000 nM | COc1cc2nccc(Oc3ccc(Nc4c(NCCN(C)C)c(=O)c4=O)c(Cl)c3)c2cc1C(N)=O [Example 136]
32 | < 50 nM | 50 to 200 nM | 200 to 1000 nM | COc1cc2nccc(Oc3ccc(NC(=S)N4CC[C@H](O)C4)c(Cl)c3F)c2cc1C(N)=O [Example 106]
33 | 50 to 200 nM | 200 to 1000 nM | 50 to 200 nM | COc1cc(Oc2ccnc3cc(OC)c(C(N)=O)cc23)ccc1NC(=S)NC1CC1 [Example 72]
34 | 50 to 200 nM | 200 to 1000 nM | < 50 nM | COc1cc2nccc(Oc3ccc(NC(=O)N4CC(F)C4)c(Cl)c3F)c2cc1C(N)=O [Example 122]
35 | < 50 nM | 50 to 200 nM | 50 to 200 nM | COc1cc2nccc(Oc3ccc(NC(=S)N4CC(F)(F)C4)c(Cl)c3)c2cc1C(N)=O [Example 35]
36 | 50 to 200 nM | 200 to 1000 nM | 50 to 200 nM | CCN(CC)CCNC(=O)c1cc2c(Oc3ccc(NC(=S)NC4CC4)c(Cl)c3)ccnc2cc1OC [Example 39]
37 | < 50 nM |  |  | Cc1c(OC[C@@H](C)O)cn2ncnc(Oc3ccc(NC(=O)NC4CC4)c(Cl)c3)c12 [Example 126]
38 | 200 to 1000 nM | 200 to 1000 nM | 200 to 1000 nM | COc1cc2nccc(Oc3ccc4c(C(=O)N5CC(F)(F)C5)coc4c3)c2cc1C(N)=O [Example 187]
39 | 50 to 200 nM | 200 to 1000 nM | < 50 nM | COc1cc2nccc(Oc3ccc(NC(=S)Nc4ccccc4F)c(Cl)c3)c2cc1C(N)=O [Example 65]
40 | 200 to 1000 nM | 200 to 1000 nM | 200 to 1000 nM | COc1cc2nccc(Oc3ccc(N4CCNC4=O)c(Cl)c3)c2cc1C(N)=O [Example 165]
41 | 200 to 1000 nM | 200 to 1000 nM | 200 to 1000 nM | COc1cc2nccc(Oc3ccc(NC(=S)N4CC(F)(F)C4)c(Cl)c3)c2cc1NC(C)=O [Example 180]
42 | 50 to 200 nM | 50 to 200 nM | 200 to 1000 nM | COc1cc2nccc(Oc3ccc(NC(=S)N4CC[C@@H](F)C4)c(Cl)c3F)c2cc1C(N)=O [Example 108]
43 | 50 to 200 nM | 200 to 1000 nM | 50 to 200 nM | COc1cc2nccc(Oc3ccc(NC(=S)N4CC(O)C4)c(Cl)c3)c2cc1C(N)=O [Example 69]
44 | 200 to 1000 nM | 200 to 1000 nM | 50 to 200 nM | COc1cc2nccc(Oc3ccc4c(c3)CCCN4C(=S)NCC(F)F)c2cc1C(N)=O [Example 34]
45 | 50 to 200 nM | 200 to 1000 nM | 50 to 200 nM | CCN(CC)CCCNC(=O)c1cc2c(Oc3ccc(NC(=S)NC4CC4)c(Cl)c3)ccnc2cc1OC [Example 40]
46 | 200 to 1000 nM | 200 to 1000 nM | 200 to 1000 nM | COc1cc2ncc(Cl)c(Oc3ccc(NC(=S)N4CCCC4)c(Cl)c3)c2cc1C(N)=O [Example 88]
47 | 50 to 200 nM | 200 to 1000 nM | < 50 nM | COc1cc2nccc(Oc3ccc(NC(=O)N4CC(F)(F)C4)c(Cl)c3F)c2cc1C(N)=O [Example 119]
48 | 200 to 1000 nM |  |  | COc1cc2nccc(Oc3ccc(CP(=O)(O)NC4CC4)c(Cl)c3)c2cc1C(N)=O [Example 133]
49 | 200 to 1000 nM |  |  | COc1cc2nccc(Oc3ccc4nc(Nc5ccc(Cl)c(F)c5)sc4c3)c2cc1C(N)=O [Example 159]

Reference: patent US10654808B2, “Tyrosine kinase inhibitor and pharmaceutical composition comprising same” (GUANGDONG RAYNOVENT BIOTECH CO., LTD., priority 2015, dated 2020)
